# Source: the SangsterLogP compilation
# Experiment: method code SF, from Hansch, C. & Leo, A. (1987). Log P database [Dataset]. Pomona College Medicinal Chemistry Project.
# Conditions: not given
row,Compound,logP
1,CCOC(=O)C(=Cc1ccc(Cl)cc1Cl)C(=O)OCC,3.49
2,CC(=O)Nc1ccccc1C(F)(F)F,1.11
3,CS(=O)c1ccccc1 (stereo not drawn),0.55
4,CCOP(=O)(OCC)Oc1ccc(SC)c(Cl)c1,3.48
5,CC1(C)OC(=O)c2ccccc21,1.73
6,CCN(CC)c1ccc(/N=N/c2ccc(Br)cn2)c(O)c1,4.23
7,N#CCc1cccs1,1.26
8,COc1ccc(OC(C)=O)cc1,1.54
9,NC(=O)c1cccc(C(N)=O)c1,-0.21
10,COP(=O)(CC(C)=O)OC,0.86
11,CCCCO[N+](=O)[O-],2.15
12,Cc1ccc(Cc2c[nH]c(NCCCCc3ccc(Br)cc3C)nc2=O)cn1,3.61
13,CC1(O)OC(=O)c2ccccc21 (stereo not drawn),0.81
14,CNC(=O)C=Cc1ccccc1,1.81
15,COc1cccc(C(=O)N(C)C)c1,1
16,O=S1(=O)N=C(C2CCCC2)Nc2ccccc21,1.83
17,CC(CN(C)C)CN1c2ccccc2Sc2ccccc21 (stereo not drawn),4.71
18,CCCCCCOC(=O)c1ccc(O)cc1,4.35
19,CCOCCOC(=O)C(C#N)=CC(C)(C)NCc1ccc(Cl)cc1,4.05
20,O=C(Cc1ccccc1)c1ccccc1,3.18
21,C=CC(=O)c1ccccc1,1.88
22,CCOC(=O)CON=Cc1ccc(OCCOC(=O)CC)c(OC)c1,2.39
23,NC1=Nc2cc(Cl)ccc2S(=O)(=O)N1,0.91
24,C=C(C=O)CC,1.24
25,CS(=O)(=O)Oc1ccccc1,1.25
26,FC(F)(F)C(F)(F)C(F)(F)C(F)(F)C(F)(F)F,4.4

row,Compound,logP
1,CCC1(C)CCC(=O)NC1=O (stereo not drawn),0.23
2,OCCOc1ccccc1,1.16
3,CC(C)CCO[N+](=O)[O-],2.84
4,CCC1=Nc2cc(Cl)ccc2S(=O)(=O)N1,1.61
5,COc1cc(S(C)=O)ccc1-c1cn2ccncc2n1 (stereo not drawn),1.11
6,CCCCOC1NC(=O)NC(=O)C1=[N+]=[N-] (stereo not drawn),-0.55
7,CCCCC(=O)c1ccc[nH]1,2.42
8,CC(N)=S,-0.26
9,O=[N+]([O-])c1ccsc1,1.55
10,COc1cccc(OC)n1,2.3
11,O=c1cnn([C@@H]2O[C@H](CO)[C@@H](O)[C@H]2O)c(=O)[nH]1,-2.14
12,c1ccc(CSc2cnn[nH]2)cc1,2.65
13,FC(Cl)Cl,1.55
14,CC1=Nc2ccc([N+](=O)[O-])cc2S(=O)(=O)N1,0.65
15,CC(=O)C(C)=O,-1.34
16,O=S1(=O)NC(c2ccccc2)=Nc2ccccc21,1.78
17,CN(C)C(=S)Nc1ccccc1,1.04
18,N#Cc1cccc(OC(=O)CNC(=O)c2ccccc2)c1,2.11
19,O=[N+]([O-])c1ccc2[nH]c(C(O)C(O)c3nc4cc([N+](=O)[O-])ccc4[nH]3)nc2c1 (stereo not drawn),1.45
20,CCOC(=O)c1ccccn1,0.88
21,CCOP(=O)(N1CC1(C)C)N1CC1(C)C (stereo not drawn),1.02
22,CC(=O)Oc1cccc([N+](=O)[O-])c1,1.82
23,C(=N\c1ccccc1)/c1ccccc1,2.82
24,O=C(O)CNc1ccccc1,0.62
25,O=[N+]([O-])c1cc[n+]([O-])cc1,-0.55
26,O=[N+]([O-])c1ccc(C=Cc2nc3ccccc3[nH]2)o1,1.4

# Same assay, conditions: pH 1.0
row,Compound,logD
1,CCCN(CCC)S(=O)(=O)c1ccc(C(=O)O)cc1,3.21

# Same assay, conditions: pH 3.0
row,Compound,logD
1,CC(=O)OCC1=C(C(=O)O)N2C(=O)C(NC(=O)COc3ccccc3)C2SC1 (stereo not drawn),0.26

# Same assay, conditions: pH 4.2
row,Compound,logD
1,Nc1nc(=O)c2[nH]nnc2[nH]1,-0.71

# Same assay, conditions: pH 5.4
row,Compound,logD
1,COC(=O)c1cc2nc(S(=O)Cc3ncccc3C)[nH]c2cc1C (stereo not drawn),2.4

# Same assay, conditions: pH 7.0
row,Compound,logD
1,FC(F)(F)c1ccc2cccnc2c1,3.02
2,COc1ccc(C=O)cc1,1.61
3,COC(=O)c1ccc(OC)cc1,2.27
4,CC(=O)Oc1ccc(C(N)=O)cc1,0.27

# Same assay, conditions: pH 7.3
row,Compound,logD
1,Nc1ncnc2nc(-c3cccc([N+](=O)[O-])c3)[nH]c12,1.93

# Same assay, conditions: pH 7.4
row,Compound,logD
1,Sc1ncnc2nc[nH]c12,0.01
2,O=C(CCCN1CCC(n2c(=O)[nH]c3ccccc32)CC1)c1ccc(F)cc1,3.91
3,Cc1[nH]c(=O)[nH]c(=O)c1N(CCF)CCCl,0.85
4,CN(C)/N=N/c1ccccc1Cl,3.03
5,CO/N=C/CCc1ccccc1,2.14
6,Cc1c(N2CCOCC2)c(=O)n(-c2ccccc2)c(=O)n1C,0.69
7,CC(=O)NN=CCCc1ccccc1,1.8
8,O/N=C/CCc1ccccc1,1.56
9,CCCNc1c(C)n(C)c(=O)n(-c2ccccc2)c1=O,1.2

# Same assay, conditions: pH 8.0
row,Compound,logD
1,Cn1c(N)cc2ccccc21,1.72

# Same assay, conditions: pH 11.0
row,Compound,logD
1,c1cncc(CCN2CCCC2)c1,1.34
2,CNC=CCCc1cccnc1,1.13

# Same assay, conditions: pH 12.0
row,Compound,logD
1,CN(C)/N=N/c1ccccc1CO,1.73
2,CCCCC1CC(C(=O)NC(C(C)Cl)C2OC(SC)C(O)C(O)C2O)N(CC)C1 (stereo not drawn),3.21

# Same assay, conditions: pH 13.0
row,Compound,logD
1,COc1ccc(Cc2cnc(N)nc2N)c(OC)c1OC,1.52
2,CC(=O)Nc1cccc(OCc2cccc(N3C(N)=NC(N)=NC3(C)C)c2)c1,1.15
3,CCCCN(CCCC)CC(O)c1ccccc1 (stereo not drawn),3.16
